Experimental data: patent publication US10828305B2 (SHANGHAI PHARMACEUTICALS HOLDING CO., LTD., priority 2016, dated 2020)

How the values were obtained:
N87 = assay: Proliferation inhibition assay in vitro, N87 (CellTiter-Glo); format: cell-based; conditions: Homo sapiens; 72 hours; read-out: IC50(nM) cell N87
Method: (§1) Proliferation Inhibition Assay In Vitro of Cell Lines
(§2) 1. Cell culture and inoculation: on the first day of the experiment, normal cultured cells were taken in the exponential growth phase, the cells were dispersed by digesting, then the cell density was adjusted to 8.8×10^4 cells/mL for BT-474 and 6.6×10^4 cells/mL for N87, 90 μl of which were inoculated to each well in a 96-well cell culture plate; after inoculation, the microplate was placed at condition of 37° C., 5% CO2 overnight. 2. Dosing to cells: on the second day of the experiment, the microplate was taken out from incubator, […], of 10× compound was separately added to each well of the microplate, 2 duplicated wells were set for each concentration, 9 dosing concentrations were set for each compound. According to different cell lines, the initial concentration of each compound was different. Upon completion of addition, the microplate was placed at condition of 37° C., 5% CO2 for 72 hours. 3. Data acquisition: the microplate was taken out from the incubator and allowed to stand at room temperature to equilibrate for 30 minutes. 100 μl CellTiter-Glo® Luminescent Cell Viability Assay reaction solution which had been equilibrated at room temperature was added to each well and the microplate was shaken at 1300 rpm for 2 minutes at room temperature. The microplate was centrifuged at 2000 rpm for 1 minute in a HERAEUS Multifuge X1R and then allowed to equilibrate at room temperature for 10 minutes. The […] signal was measured on EnVision™.

BT-474 = assay: Proliferation inhibition assay in vitro, BT-474 (CellTiter-Glo); format: cell-based; conditions: Homo sapiens, 72 hours, read-out: IC50(nM) cell BT-474
Method: as §1, §2

ErbB2 kinase = ErbB2 kinase (Homo sapiens, UniProt P04626); assay: Enzymatic experiment on ErbB2 (HTRF kinEASE-TK); format: biochemical; conditions: ATP 4 μM; read-out: Kinase IC50 (nM) in vitro ErbB2
ErbB2 kinase, sequence (P04626 23-1255): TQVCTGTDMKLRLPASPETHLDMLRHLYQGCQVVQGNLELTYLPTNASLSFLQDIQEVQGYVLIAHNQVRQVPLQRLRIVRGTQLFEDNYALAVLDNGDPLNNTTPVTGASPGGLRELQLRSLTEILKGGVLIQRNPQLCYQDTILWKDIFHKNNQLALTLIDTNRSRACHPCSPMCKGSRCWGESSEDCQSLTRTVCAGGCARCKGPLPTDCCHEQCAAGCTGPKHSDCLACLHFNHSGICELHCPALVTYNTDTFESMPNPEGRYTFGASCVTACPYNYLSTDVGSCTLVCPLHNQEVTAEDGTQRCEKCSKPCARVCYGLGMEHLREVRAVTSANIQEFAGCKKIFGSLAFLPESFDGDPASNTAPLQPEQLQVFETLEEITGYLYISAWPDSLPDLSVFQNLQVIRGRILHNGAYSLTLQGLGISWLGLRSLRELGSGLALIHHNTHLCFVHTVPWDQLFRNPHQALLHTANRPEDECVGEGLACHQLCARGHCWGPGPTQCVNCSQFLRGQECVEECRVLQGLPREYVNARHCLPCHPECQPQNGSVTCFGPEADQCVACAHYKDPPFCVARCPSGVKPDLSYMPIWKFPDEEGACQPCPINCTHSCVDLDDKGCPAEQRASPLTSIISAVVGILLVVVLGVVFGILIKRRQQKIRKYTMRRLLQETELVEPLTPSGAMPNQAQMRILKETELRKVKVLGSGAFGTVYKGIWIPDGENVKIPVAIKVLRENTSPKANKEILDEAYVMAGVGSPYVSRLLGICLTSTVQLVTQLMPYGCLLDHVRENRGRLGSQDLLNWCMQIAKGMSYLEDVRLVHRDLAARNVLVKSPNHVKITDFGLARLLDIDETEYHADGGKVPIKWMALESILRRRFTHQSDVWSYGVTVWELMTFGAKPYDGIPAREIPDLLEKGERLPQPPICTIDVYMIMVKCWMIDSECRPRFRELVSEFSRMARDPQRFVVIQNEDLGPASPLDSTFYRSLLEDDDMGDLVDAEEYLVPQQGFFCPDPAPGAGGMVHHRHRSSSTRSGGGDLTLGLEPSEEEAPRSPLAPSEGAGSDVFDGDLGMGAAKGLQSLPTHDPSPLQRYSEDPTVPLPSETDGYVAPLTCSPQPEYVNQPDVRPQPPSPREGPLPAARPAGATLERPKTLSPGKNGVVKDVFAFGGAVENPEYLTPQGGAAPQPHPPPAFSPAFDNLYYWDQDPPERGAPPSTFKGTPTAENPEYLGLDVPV
Method: (§3) Enzymatic Experiment on EGFR/ErbB2
(§4) Firstly, preparing 1× reaction buffer required for the kinase, 5× Enzymatic buffer (HEPES 20 mM pH7.0, NaN3 0.1%, BSA 0.05%, sodium orthovanadate 0.5 mM) in the HTRF kinEASE-TK kit was diluted to 1 time with deionized water, 50 nM Supplement Enzymatic buffer (SEB reagent), 1 mM MnCl2, 5 mM MgCl2 and 1 mM DTT were added. Secondly, preparing 5× compound, 10 mM test compound stock solution was diluted in multiple steps with DMSO in a 96-well compound plate to prepare 100× compound as initial concentration, which was then used as the first concentration to perform a 3-fold gradient dilution with DMSO to obtain 10 concentrations. Afterwards, 1 μl gradient dilution was added to 19 μl 1× reaction buffer to prepare 5× compound for use. Then 2 μl 5× compound was transferred from the 96 well plate into a 384-well plate. To the compound-free control wells was added with 2 μl the following liquid: 19 μl 1× reaction buffer with addition of 1 μl DMSO. To the blank control wells was added 2 μl 250 mM EDTA. The third step was enzymatic reaction, the kinase, substrate (TK Substrate-biotin) and ATP were formulated into 2.5× enzyme/substrate mixture and 2.5×ATP solution using 1× reaction buffer respectively. The final concentration of ErbB2 kinase was 0.06 ng/μl, the final concentration of ATP was 4 μM; the final concentration of EGFR kinase was 0.06 units/μl, the final concentration of ATP was 1.65 μM; 4 μl 2.5× enzyme/substrate mixture was added to a 384-well plate, which was incubated at room temperature for 5 minutes; 4 μl 2.5×ATP solution was added to each well and the mixture was allowed to react for 30 minutes at room temperature. The fourth step was termination of the reaction, HTRF Detection buffer was used to prepare a mixture of 2×TK Antibody-Eu(K) and Sa-XL665, the amount of TK Antibody-Eu(K) was 5 μl per well. After the enzymatic reaction was performed for 30 minutes, 10 μl of the above liquid was added to the 384-well plate and the mixture was allowed to react at room temperature for 1 hour. The data was measured on EnVision™, the laser of 337 nm wavelength was selected as the excitation light, RFU665 nM and RFU620 nM were measured, and […]/RFU620 nM×10000 was used as the final data for analysis.

EGFR kinase = EGFR kinase (Homo sapiens, UniProt P00533); assay: Enzymatic experiment on EGFR (HTRF kinEASE-TK); format: biochemical; conditions: ATP 1.65 μM; read-out: Kinase IC50 (nM) in vitro EGFR
EGFR kinase, sequence (P00533 25-1210): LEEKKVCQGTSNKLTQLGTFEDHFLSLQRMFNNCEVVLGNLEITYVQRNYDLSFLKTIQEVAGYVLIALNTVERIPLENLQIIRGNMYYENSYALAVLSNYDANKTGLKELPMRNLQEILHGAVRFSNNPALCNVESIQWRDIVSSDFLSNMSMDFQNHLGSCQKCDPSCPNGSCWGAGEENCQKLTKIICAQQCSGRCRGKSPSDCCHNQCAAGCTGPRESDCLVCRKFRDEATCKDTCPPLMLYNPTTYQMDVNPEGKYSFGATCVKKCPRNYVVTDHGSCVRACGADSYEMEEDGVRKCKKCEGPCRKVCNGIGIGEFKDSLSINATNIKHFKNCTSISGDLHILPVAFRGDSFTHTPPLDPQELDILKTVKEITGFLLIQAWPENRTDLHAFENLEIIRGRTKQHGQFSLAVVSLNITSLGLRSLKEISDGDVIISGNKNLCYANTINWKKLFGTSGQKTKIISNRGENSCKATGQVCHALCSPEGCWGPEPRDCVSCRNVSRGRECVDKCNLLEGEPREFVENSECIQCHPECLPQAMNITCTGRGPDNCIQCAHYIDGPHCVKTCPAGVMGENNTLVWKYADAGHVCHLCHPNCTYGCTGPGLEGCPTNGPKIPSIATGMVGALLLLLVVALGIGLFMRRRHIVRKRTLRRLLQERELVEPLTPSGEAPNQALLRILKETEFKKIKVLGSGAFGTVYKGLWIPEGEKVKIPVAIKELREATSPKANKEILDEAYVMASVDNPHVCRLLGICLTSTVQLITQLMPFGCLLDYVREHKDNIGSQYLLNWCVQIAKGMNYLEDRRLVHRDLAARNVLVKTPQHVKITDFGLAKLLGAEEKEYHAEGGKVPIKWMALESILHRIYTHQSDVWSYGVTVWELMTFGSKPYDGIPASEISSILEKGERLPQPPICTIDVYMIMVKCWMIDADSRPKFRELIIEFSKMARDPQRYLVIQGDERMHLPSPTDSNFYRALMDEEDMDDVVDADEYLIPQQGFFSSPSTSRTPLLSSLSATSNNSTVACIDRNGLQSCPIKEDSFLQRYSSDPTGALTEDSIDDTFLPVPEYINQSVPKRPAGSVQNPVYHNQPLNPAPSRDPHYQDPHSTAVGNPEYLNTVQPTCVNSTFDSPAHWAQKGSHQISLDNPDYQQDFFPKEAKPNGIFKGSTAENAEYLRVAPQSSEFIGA
Method: as §3, §4

| Compound | IC50 (BT-474) [nM] | IC50 (ErbB2 kinase) [nM] | IC50 (EGFR kinase) [nM] | IC50 (N87) [nM] |
| --- | --- | --- | --- | --- |
| CNC(=O)CN1CCC(Oc2cc3c(Nc4ccc(Oc5cc6nncn6cn5)c(C)c4)ncnc3cc2OC)CC1 [Embodiment 32, 2-(4-(7-methoxy-4-(3-methyl-4-([1,2,4]triazolo[4,3-c]pyrimidin-7-yloxy)anilino)quinazolin-6-yl)oxy-1-piperidinyl)-N-methylacetamide] | 92.6 | 4.3 | 2 | 440 |
| Cc1cc(Nc2ncnc3ccc(-c4cccc(N)c4)cc23)ccc1Oc1cc2nncn2cn1 [Embodiment 35] | 49.6 | 1.1 | 10.9 | 52.9 |
| CCOC(=O)Nc1cccc(-c2ccc3ncnc(Nc4ccc(Oc5cc6nncn6cn5)c(C)c4)c3c2)c1 [Embodiment 38, ethyl (3-(4-((4-([1,2,4]triazolo[4,3-c]pyrimidin-7-yloxy)-3-methylphenyl)amino)quinazoline-6-yl)phenyl)carbamate] | 186 | 5 | 28.1 | 86.6 |
| Cc1cc(Nc2ncnc3ccc(NC4=NC5(CCC5)CO4)cc23)ccc1Oc1cc2nncn2cn1 [Embodiment 44, N^4-(4-([1,2,4]triazolo[4,3-c]pyrimidin-7-yloxy)-3-methylphenyl)-N^6-(7-oxa-5-azaspiro[3.4]oct-5-en-6-yl)quinazoline-4,6-diamine] | 41 | 1.43 | 11.6 | 46 |
| Cc1cc(Nc2ncnc3ccc(NC4=N[C@H](C(C)C)CO4)cc23)ccc1Oc1cc2nncn2cn1 [Embodiment 45, (R)—N^4-(4-([1,2,4]triazolo[4,3-c]pyrimidin-7-yloxy)-3-methylphenyl)-N^6-(4-isopropyl-4,5-dihydrooxazol-2-yl)quinazoline-4,6-diamine] | 85.4 | 2.8 | 53.4 | 93.4 |
| Cc1cc(Nc2ncnc3ccc(NC4=NC5(CCOCC5)CO4)cc23)ccc1Oc1cc2nncn2cn1 [Embodiment 47, N^4-(4-([1,2,4]triazolo[4,3-c]pyrimidin-7-yloxy)-3-methylphenyl)-N^6-(3,8-dioxa-1-azaspiro[4.5]dec-1-en-2-yl)quinazoline-4,6-diamine] | 35 | 2.6 | 31.4 | 68.4 |
| CCNC(=O)Nc1cccc(-c2ccc3ncnc(Nc4ccc(Oc5cc6nncn6cn5)c(C)c4)c3c2)c1 [Embodiment 50, 1-(3-(4-((4-([1,2,4]triazolo[4,3-c]pyrimidin-7-yloxy)-3-methylphenyl)amino)quinazolin-6-yl)phenyl)-3-ethylurea] | 104 | 3.6 | 27.8 | 116 |
| C=CC(=O)Nc1cncc(-c2ccc3ncnc(Nc4ccc(Oc5cc6nncn6cn5)c(C)c4)c3c2)c1 [Embodiment 52, N-(5-(4-((4-([1,2,4]triazolo[4,3-c]pyrimidin-7-yloxy)-3-methylphenyl)amino)quinazolin-6-yl)pyridin-3-yl)acrylamide] | 30.4 | 2.35 | 21.6 | 117 |
| C=CC(=O)NC/C=C/c1ccc2ncnc(Nc3ccc(Oc4cc5nncn5cn4)c(C)c3)c2c1 [Embodiment 53, (E)-N-(3-(4-((4-([1,2,4]triazolo[4,3-c]pyrimidin-7-yloxy)-3-methylphenyl)amino)quinazolin-6-yl)allyl)acrylamide] | 5.9 | 3.58 | 57.9 | 6.2 |

The remaining molecules from weak to strong by IC50 (BT-474), led by results:

| IC50 (BT-474) [nM] | IC50 (ErbB2 kinase) [nM] | IC50 (EGFR kinase) [nM] | Compound | IC50 (N87) [nM] |
| --- | --- | --- | --- | --- |
| 187 | 10.1 | 57.4 | Cc1cc(Nc2ncnc3ccc(NC4=NCC5(CCN(C)CC5)O4)cc23)ccc1Oc1cc2nncn2cn1 [Embodiment 31, N^4-(4-([1,2,4]triazolo[4,3-c]pyrimidin-7-yloxy)-3-methylphenyl)-N^6-(8-methyl-1-oxa-3,8-diazaspiro[4.5]dec-2-en-2-yl)quinazoline-4,6-diamine] | 433 |
| 172 | 12 | 51.6 | Cc1cc(Nc2ncnc3ccc(NC4=NCC5(CCOCC5)O4)cc23)ccc1Oc1cc2nncn2cn1 [Embodiment 46, N^4-(4-([1,2,4]triazolo[4,3-c]pyrimidin-7-yloxy)-3-methylphenyl)-N^6-(1,8-dioxa-3-azaspiro[4.5]dec-2-en-2-yl)quinazoline-4,6-diamine] | 316 |
| 108 | 8.41 | 47.1 | Cc1cc(Nc2ncnc3ccc(-c4cccc(NC(=O)/C=C/c5cccnc5)c4)cc23)ccc1Oc1cc2nncn2cn1 [Embodiment 51, (E)-N-(3-(4-((4-([1,2,4]triazolo[4,3-c]pyrimidin-7-yloxy)-3-methylphenyl)amino)quinazolin-6-yl)phenyl)-3-(pyridin-3-yl)acryiamide] | 93.7 |
| 55.6 | 2.1 | 8.2 | COCC(=O)Nc1cccc(-c2ccc3ncnc(Nc4ccc(Oc5cc6nncn6cn5)c(C)c4)c3c2)c1 [Embodiment 34, N-(3-(4-((4-([1,2,4]triazolo[4,3-c]pyrimidin-7-yloxy)-3-methylphenyl)amino)quinazoline-6-yl)phenyl)-2-methoxyacetamide] | 46.3 |
| 42.2 | 1.3 | 9.4 | Cc1cc(Nc2ncnc3ccc(NC4=NC5(CO4)CC(F)(F)C5)cc23)ccc1Oc1cc2nncn2cn1 [Embodiment 48, N^4-(4-([1,2,4]triazolo[4,3-c]pyrimidin-7-yloxy)-3-methylphenyl)-N^6-(2,2-difluoro-7-oxa-5-azaspiro[3.4]oct-5-en-6-yl)quinazoline-4,6-diamine] | 64 |
| 36.7 | 5.2 | 8.3 | C=C(F)C(=O)N1CCC(Oc2cc3c(Nc4ccc(Oc5cc6nncn6cn5)c(C)c4)ncnc3cc2OC)CC1 [Embodiment 42, 1-(4-((4-((4-([1,2,4]triazolo[4,3-c]pyrimidin-7-yloxy)-3-methylphenyl)amino)-7-methoxyquinazolin-6-yl)oxy)piperidin-1-yl)-2-fluoroprop-2-en-1-one] | 39.2 |
| 33.4 | 1.85 | 28.1 | CCNC(=O)NC/C=C/c1ccc2ncnc(Nc3ccc(Oc4cc5nncn5cn4)c(C)c3)c2c1 [Embodiment 49, (E)-1-(3-(4-((4-([1,2,4]triazolo[4,3-c]pyrimidin-7-yloxy)-3-methylphenyl)amino)quinazolin-6-yl)allyl)-3-ethylurea] | 271 |
| 21.5 | 1.5 | 1.9 | Cc1cc(Nc2ncnc3ccc(-c4ccc(CNCCNS(C)(=O)=O)o4)cc23)ccc1Oc1cc2nncn2cn1 [Embodiment 36, N-(2-(((5-(4-((4-([1,2,4]triazolo[4,3-c]pyrimidin-7-yloxy)-3-methylphenyl)amino)quinazolin-6-yl)furan-2-yl)methyl)amino)ethyl)methylsulfonamide] | 47.5 |
| 6.9 | 4.3 | 1.3 | C=CC(=O)N1CCC(Oc2cc3c(Nc4ccc(Oc5cc6nncn6cn5)c(C)c4)ncnc3cc2OC)CC1 [Embodiment 41, 1-(4-((4-((4-([1,2,4]triazolo[4,3-c]pyrimidin-7-yloxy)-3-methylphenyl)amino)-7-methoxyquinazolin-6-yl)oxy)piperidin-1-yl)pro-2-en-1-one] | 11.7 |
